Test results: PMC3654564 (ACS Medicinal Chemistry Letters, 2013)
Substitutions are numbered along the chain they refer to.

Columns and labels:
[1] = test system: carrageenan-induced rat paw edema; experiment: Carrageenan-induced rat footpad edema model; type: in vivo; settings: oral in corn oil 1 h postcarrageenan, footpad volume 2 h later
[2] = Sprague–Dawley rats, doses higher than 2 mg/kg; ref previous studies; cited from earlier work
COX-2 = settings: also, to some extent, COX-1; cited from earlier work
hCOX-2 = molecular target: T1, hCOX-2 (Homo sapiens, UniProt P35354); experiment: Time-dependent COX inhibition assay; type: biochemical
T1 sequence (P35354 18-604): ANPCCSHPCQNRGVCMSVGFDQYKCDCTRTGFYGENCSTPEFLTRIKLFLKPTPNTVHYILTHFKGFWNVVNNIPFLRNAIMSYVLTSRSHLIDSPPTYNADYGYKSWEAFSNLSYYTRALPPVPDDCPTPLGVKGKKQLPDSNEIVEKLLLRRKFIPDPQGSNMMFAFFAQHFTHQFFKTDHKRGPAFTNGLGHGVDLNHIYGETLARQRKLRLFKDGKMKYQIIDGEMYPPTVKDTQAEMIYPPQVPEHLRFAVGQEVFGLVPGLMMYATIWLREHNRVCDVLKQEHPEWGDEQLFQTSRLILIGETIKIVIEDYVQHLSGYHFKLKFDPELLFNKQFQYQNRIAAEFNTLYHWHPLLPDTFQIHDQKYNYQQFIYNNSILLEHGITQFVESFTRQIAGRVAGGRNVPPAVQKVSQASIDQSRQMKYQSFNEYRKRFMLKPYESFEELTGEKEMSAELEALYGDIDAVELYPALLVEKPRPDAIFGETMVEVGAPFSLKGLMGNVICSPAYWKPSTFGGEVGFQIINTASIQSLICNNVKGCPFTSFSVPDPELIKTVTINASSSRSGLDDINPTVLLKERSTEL

[3] = Gastrointestinal tolerability observation in rats; type: in vivo, rat
mR120A (mCOX-2 mutant) = molecular target: T2, mR120A (mCOX-2 mutant) (Mus musculus, UniProt Q05769, R106A); experiment: COX inhibition screening assay, mCOX-2 R120A mutant; type: biochemical; settings: inhibitor concentrations of up to 100 μM
T2 sequence (Q05769 18-604 R106A): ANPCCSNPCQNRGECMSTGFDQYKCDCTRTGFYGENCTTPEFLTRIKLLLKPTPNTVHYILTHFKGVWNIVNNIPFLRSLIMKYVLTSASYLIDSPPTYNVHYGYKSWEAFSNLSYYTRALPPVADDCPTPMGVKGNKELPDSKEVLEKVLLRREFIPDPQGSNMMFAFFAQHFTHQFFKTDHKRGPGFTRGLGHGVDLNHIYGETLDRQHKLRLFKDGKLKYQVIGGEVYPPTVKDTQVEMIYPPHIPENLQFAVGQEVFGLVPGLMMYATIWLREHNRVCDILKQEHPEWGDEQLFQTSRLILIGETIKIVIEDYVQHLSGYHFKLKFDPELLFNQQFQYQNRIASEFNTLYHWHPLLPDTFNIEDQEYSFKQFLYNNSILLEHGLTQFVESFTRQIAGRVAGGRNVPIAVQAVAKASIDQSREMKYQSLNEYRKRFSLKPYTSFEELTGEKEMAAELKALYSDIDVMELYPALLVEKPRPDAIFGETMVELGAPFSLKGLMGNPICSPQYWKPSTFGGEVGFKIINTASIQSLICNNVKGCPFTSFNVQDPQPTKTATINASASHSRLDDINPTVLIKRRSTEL

oCOX-1 = molecular target: T3, oCOX-1 (Ovis aries, UniProt P05979); experiment: COX inhibition screening assay; type: biochemical, ovine
T3 sequence (P05979 25-600): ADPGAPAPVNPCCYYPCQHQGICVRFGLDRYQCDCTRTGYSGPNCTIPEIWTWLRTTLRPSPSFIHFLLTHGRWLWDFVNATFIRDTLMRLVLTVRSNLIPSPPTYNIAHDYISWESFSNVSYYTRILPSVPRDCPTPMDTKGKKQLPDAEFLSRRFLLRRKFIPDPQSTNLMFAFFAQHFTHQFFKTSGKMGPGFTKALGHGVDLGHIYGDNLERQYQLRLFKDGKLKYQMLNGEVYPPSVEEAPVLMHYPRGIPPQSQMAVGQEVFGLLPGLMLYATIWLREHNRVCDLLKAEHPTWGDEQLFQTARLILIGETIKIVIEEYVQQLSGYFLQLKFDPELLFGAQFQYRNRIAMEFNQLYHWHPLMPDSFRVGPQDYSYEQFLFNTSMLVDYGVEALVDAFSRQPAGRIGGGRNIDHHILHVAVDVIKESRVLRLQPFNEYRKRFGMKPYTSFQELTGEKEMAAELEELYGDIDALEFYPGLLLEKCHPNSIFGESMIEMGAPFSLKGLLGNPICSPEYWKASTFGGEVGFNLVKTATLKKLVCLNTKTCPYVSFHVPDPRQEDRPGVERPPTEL

mV523I (mCOX-2 mutant) = molecular target: T4, mV523I (mCOX-2 mutant) (Mus musculus, UniProt Q05769, V509I); experiment: COX inhibition screening assay, mCOX-2 V523I mutant; type: biochemical
T4 sequence (Q05769 18-604 V509I): T2 sequence (Q05769 18-604 R106A) with A89R, V492I

mY355F (mCOX-2 mutant) = molecular target: T5, mY355F (mCOX-2 mutant) (Mus musculus, UniProt Q05769, Y341F); experiment: COX inhibition screening assay, mCOX-2 Y355F mutant; type: biochemical; settings: inhibitor concentrations of up to 100 μM
T5 sequence (Q05769 18-604 Y341F): T2 sequence (Q05769 18-604 R106A) with A89R, Y324F

| Compound | EC50, anti-inflammatory activity [1] [mg/kg] | gastric toxicity at higher doses [2] | COX-2 inhibition (type) (COX-2) | KI for initial binding to COX-2, fold lower than for indomethacin (hCOX-2) | Ki (hCOX-2) [nM] | k2, fold slower than for indomethacin (hCOX-2) [fold] | k2/KI, fold greater than for indomethacin (hCOX-2) | forward rate constant (k2) (hCOX-2; wild-type hCOX-2) [s^–1] | gastrointestinal bleeding ([3]; rat, oral, tested up to 10 mg/kg) | overnight observation after testing ([3]; treated rats maintained overnight) | inhibition of Arg-120 to Ala mutant of COX-2 (mR120A (mCOX-2 mutant)) | IC50 (oCOX-1) [nM] | effect on oCOX-1 (oCOX-1; up to very high inhibitor concentrations (100 μM)) | IC50 (mV523I (mCOX-2 mutant)) [nM] | inhibition of Tyr355 to Phe mutant of COX-2 (mY355F (mCOX-2 mutant)) |
| --- | --- | --- | --- | --- | --- | --- | --- | --- | --- | --- | --- | --- | --- | --- | --- |
| COc1ccc2c(c1)c(CC(=O)O)c(C)n2C(=O)c1ccc(Cl)cc1 [indomethacin, 2-(1-(4-chlorobenzoyl)-5-methoxy-2′-methyl-1H-indol-3-yl)ethanoic acid, reference compound] | 1.0 | substantial gastric erosion and bleeding | – | – | – | – | – | – | – | – | – | – | – | – | – |
| COc1ccc2c(c1)c(CC(=O)O)cn2C(=O)c1ccc(Cl)cc1 [des-methyl derivative] | – | – | weak, reversible inhibitor | – | – | – | – | – | – | – | – | – | – | – | – |
| COc1ccc2c(c1)c(CC(=O)O)c(C(F)(F)F)n2C(=O)c1ccc(Cl)cc1 [CF3–indomethacin, 2-(1-(4-chlorobenzoyl)-5-methoxy-2′-trifluoromethyl-1H-indol-3-yl)ethanoic acid] | 1.7 | – | – | approximately 9 fold | 1500 ± 260 | 3 | approximately 3 fold | 0.020 ± 0.001 | no evidence of gastrointestinal bleeding | no passage of blood from the gastrointestinal tract was observed | unable to inhibit | > 100000 | no appreciable effect | > 4000 | unable to inhibit |
